The record followed here is ChEMBL document CHEMBL3045063, “Synthesis and cytostatic evaluation of some 2-(5-substituted-2-oxoindolin-3-ylidene)-N-substituted hydrazine carbothioamide” (Med Chem Res, 2011).

Common to all, as to format: functional, cell-based
One assay has as its system CCRF-CEM. Kind of assay: Cytostatic activity against Homo sapiens (human) CEM cells after 72 hr.
The next assay has as its system MOLT-4. Kind of assay: Cytostatic activity against Homo sapiens (human) Molt4/C8 cells after 72 hr. As to conditions: MOLT-4, 72 h.
The subject of a further assay is L1210. Kind of assay: Cytostatic activity against Mus musculus (mouse) L1210 cells after 48 hr. As to conditions: L1210, 48 h.

A value given as a limit tells only on which side of the number the result lay.

For `Cc1ccc(CN2C(=O)/C(=N\NC(=S)Nc3ccc(Cl)cc3)c3cc(Br)ccc32)cc1`, the IC50 turned out to be 98 µM with CCRF-CEM, 74 µM in the assay on MOLT-4 and 193 µM in the assay with L1210.
For `Cc1ccc(NC(=S)N/N=C2\C(=O)N(Cc3ccc(Cl)cc3)c3ccc(Br)cc32)cc1`, the figures for the IC50 in the assay on CCRF-CEM, with MOLT-4 and in the assay with L1210 were at least 500 µM, 288 µM and at least 500 µM, respectively.
As to `Cc1ccc(NC(=S)N/N=C2\C(=O)N(Cc3ccc(F)cc3)c3ccc(Br)cc32)cc1`, the IC50 in the assay with CCRF-CEM is 132 µM; with MOLT-4 it was 57 µM; in the assay with L1210, 190 µM.
For `O=C1/C(=N\NC(=S)Nc2ccc(Cl)cc2)c2cc(F)ccc2N1Cc1ccc(F)cc1`, in that order: 56 µM, 47 µM and 154 µM.
Take `Cc1ccc(CN2C(=O)/C(=N\NC(=S)Nc3ccc(C)cc3)c3cc(Br)ccc32)cc1`: the half-inhibitory concentration (IC50) was at least 500 µM with CCRF-CEM, 393 µM in the assay on MOLT-4 and at least 500 µM in the assay with L1210.
For the molecule `Cc1ccc(CN2C(=O)/C(=N\NC(=S)Nc3ccc(Cl)cc3)c3cc(Cl)ccc32)cc1`, the half-inhibitory concentration (IC50) in the assay on CCRF-CEM came out at 18 µM; with MOLT-4, 5.8 µM; in the assay on L1210, 9.8 µM.
For `O=C1Nc2cc(Cl)c(F)cc2/C1=N/NC(=S)Nc1ccc(Cl)cc1`, in that order: 48 µM, 43 µM and 69 µM.
In the assay with MOLT-4, `N[C@@H](Cc1ccc(N(CCCl)CCCl)cc1)C(=O)O` [MELPHALAN] displayed a concentration for half-maximal inhibition (IC50) of 3.2 µM.
For the molecule `O=C1/C(=N\NC(=S)Nc2ccc(Cl)cc2)c2cc(Cl)ccc2N1Cc1ccc(Cl)cc1`, the values for the IC50 with CCRF-CEM, with MOLT-4 and with L1210 were 68 µM, 58 µM and 124 µM, respectively.
In the same order, the values of `O=C1Nc2ccc(F)cc2/C1=N/NC(=S)Nc1ccc(Cl)cc1` are 25 µM, 14 µM and 34 µM.
In the same order, the values of `Cc1ccc(NC(=S)N/N=C2\C(=O)Nc3cc(Cl)c(F)cc32)cc1` are 132 µM, 112 µM and 166 µM.
Consider `O=C1Nc2ccc(Cl)cc2/C1=N/NC(=S)Nc1ccc(Cl)cc1`, for which the IC50 stood at 61 µM in the assay on CCRF-CEM, 64 µM with MOLT-4 and 108 µM in the assay on L1210.
For the molecule `O=C1/C(=N\NC(=S)Nc2ccc(Cl)cc2)c2cc(Br)ccc2N1Cc1ccc(F)cc1`, the half-inhibitory concentration (IC50) in the assay with CCRF-CEM was 61 µM; in the assay with MOLT-4 it was 48 µM; with L1210, 196 µM.
In the same order, the values of `Cc1ccc(NC(=S)N/N=C2\C(=O)N(Cc3ccc(F)cc3)c3ccc(F)cc32)cc1` are 2.5 µM, 1.5 µM and 6.2 µM.
With `O=C1Nc2ccc(Br)cc2/C1=N/NC(=S)Nc1ccc(Cl)cc1`, the half-inhibitory concentration (IC50) in the assay on CCRF-CEM was found to be 61 µM; in the assay on MOLT-4, 29 µM; with L1210 it was 88 µM.
With `O=C1/C(=N\NC(=S)Nc2ccc(Cl)cc2)c2cc(Br)ccc2N1Cc1ccc(Cl)cc1`, the IC50 in the assay with CCRF-CEM was 392 µM; with MOLT-4 it was 280 µM; in the assay with L1210, at least 500 µM.
Regarding `Cc1ccc(NC(=S)N/N=C2\C(=O)Nc3ccc(F)cc32)cc1`, the IC50 was 4.8 µM in the assay with CCRF-CEM, 3 µM in the assay on MOLT-4 and 8.2 µM in the assay with L1210.
For `O=C1/C(=N\NC(=S)Nc2ccc(Cl)cc2)c2cc(Cl)ccc2N1Cc1ccc(F)cc1`, in that order: 50 µM, 48 µM and 103 µM.
Take `Cc1ccc(NC(=S)N/N=C2\C(=O)Nc3ccc(Br)cc32)cc1`: the half-maximal inhibitory concentration (IC50) stood at 6.8 µM in the assay with CCRF-CEM, 4.9 µM in the assay on MOLT-4 and 9.6 µM in the assay on L1210.

Usually IC50 stands for the concentration needed to halve the response being measured. Lower therefore signals inhibition by little substance.
